The target of data set [1] is Aurora A. On the set-up: method as in PMID 27406026. Particulars: cited from earlier work.
Data set [2] addresses T1, VEGF-R3 (Homo sapiens, UniProt P35916).
T1 construct: host or cells: Sf9 (baculovirus)
Description: radiometric 33PanQinase protein kinase assay. It counts as biochemical. The conditions noted are these: radiometric assay, 1 µM ATP. Here is the method: (§1) The inhibitory activity of prototype 2a was determined in a panel of 24 tumor-relevant protein kinases using a radiometric assay. Only the kinases Aurora A, VEGF-R2 and VEGF-R3 were inhibited with single digit micromolar IC50 values (Table 2). Structural modifications were then implemented, particularly directed to improve inhibition of Aurora A. The so-designed congeners with small substituents at the aniline ring 2b–2n were examined for inhibition of Aurora A and of VEGF-R2, VEGF-R3 and Aurora B for comparison (Table 3).
(§2) The screening for protein kinase inhibition was performed with the radiometric ^33Panqinase activity assay at Reaction Biology Europe GmbH (Freiburg) using a robotic system (Beckmann Coulter/SagianRoboter) and 96-well plates (FlashPlates, Perkin/Elmer/NEN, Boston, MA, USA). In brief, the transfer of ^33P-phosphate into the substrate was measured with a microplate scintillation counter (Microbeta Trilux, Wallace). Protein kinases were expressed in Sf9 cells as recombinant glutathione S-transferase (GST) or polyhistidine (His)-tagged proteins in baculovirus. Isolation and purification of expressed kinases were performed with affinity chromatography by using GSH agarose (Sigma) or Ni-NTA agarose (Qiagen). The standard solution for each enzyme contained: 60 mM HEPES-NaOH (pH 7.5), 3 mM MgCl2, 3 µM sodium orthovanadate, 1.2 mM DTT, 50 µg/mL PEG20000 and 1 µM [γ-^33P]-ATP (approximately 5 × 10^5 cpm per well). In chronological order the reaction mixture was prepared: 20 µL standard solution, 5 µL ATP solution in water, 5 µL of the compound in 10% DMSO and 20 µL of enzyme/substrate mixture (50:50). Each kinase contained different substrates in different concentrations: 125 ng/50 µL Poly(Glu, Tyr)4:1 for 20 ng/50 µL IGF1-R, 25 ng/50 µL IGF1-R, 20 ng/50 µL EGF-R, 25 ng/50 µL EGF-R, 40 ng/50 µL EGF-R, 10 ng/50 µL EPHB4, 20 ng/50 µL EPHB4, 200 ng/50 µL ERBB2, 10 ng/50 µL SRC, 100 ng/50 µL FAK, 200 ng/50 µL FAK, 50 ng/50 µL VEGF-R2, 100 ng/50 µL VEGF-R3, 200 ng/50 µLTIE2; 250 ng/50 µL Poly(Glu, Tyr)4:1 for 200 ng/50 µL TIE2; 500 ng/50 µL tetra (LRRWSLG) for 50 ng/50 µL Aurora-A, 25 ng/50 µL PAK4, 25 ng/50 µL PDK1; 250 ng/50 µL tetra (LRRWSLG) for 50 ng/50 µL Aurora-B, 200 ng/50 µL Aurora-B; 125 ng/50 µL Histon H1 for 100 ng/50 µL CDK2/CycA; 250 ng/50 µL Rb-CTF for 50 ng/50 µL CDK/CycD1; 500 ng/50 µL Rb-CTF for 50 ng/50 µL CDK4/CycD1; 125 ng/50 µL Poly(ala, Glu, Lys, Tyr)6:2:5:1 for 25 ng/50 µL INS-R, 50 ng/50 µL PDGFR-beta, 100 ng/50 µL PDGFR-beta, 100 ng/50 µL FLT3, 150 ng/50 µL FLT3, 20 ng/50 µL MET, 50 ng/50 µL MET, 100 ng/50 µL MET; 250 ng/50 µL Casein for 200 ng/50 µL CK2-alpha1, 200 ng/50 µL PLK1; 1000 ng/50 µL Casein for 200 ng/50 µL PLK1, 200 ng/50 µL CK2-alpha1; 1000 ng/50 µLGSK3 (14–27) for 100 ng/50 µL AKT1; 125 ng/50 µL p53-CTM for 150 ng/50 µL CK2-alpha1, 200 ng/50 µLCK2-alpha1; 250 ng/50 µL MEK-KM for 20 ng/50 µL B-RAF-VE; autophosphorylation at ARK5, COT and SAK. After incubation (80 min, 30 °C) the reaction was stopped by adding 50 µL 2% (v/v) phosphoric acid to the reaction mixture. The microplate was washed twice with 200 µL 0.9% (v/v) saturated sodium chloride or water. The measured radioactivity, conditioned by the incorporation of [γ-^33P]-phosphate, is proportional to kinase activity. Furthermore, low control and high control were measured to determine the residual activity (%). As low controls, mixtures with substrate, but without enzyme were used to determine the unspecific binding of [γ-^33P]-phosphate to the well plate. Mixtures with enzyme, but without inhibitor were used as high controls to determine maximum enzyme activity. The IC50-values of the distinct compounds were calculated with Quattro Workflow V1.1.0.8 (Quattro Research GmbH, München, Germany). Dose response curves were generated by measurement of the residual activity of ten different inhibitor concentrations (0.1 mM, 30.0 µM, 10 µM, 3.0 µM, 1.0 µM, 0.3 µM, 0.1 µM, 30.0 nM, 10.0 nM and 3.0 nM). […]

The target in data set [3] is T2, Aurora-A (Homo sapiens, UniProt O14965).
T2 construct: host or cells: Sf9 (baculovirus)
T2 sequence (O14965 1-403): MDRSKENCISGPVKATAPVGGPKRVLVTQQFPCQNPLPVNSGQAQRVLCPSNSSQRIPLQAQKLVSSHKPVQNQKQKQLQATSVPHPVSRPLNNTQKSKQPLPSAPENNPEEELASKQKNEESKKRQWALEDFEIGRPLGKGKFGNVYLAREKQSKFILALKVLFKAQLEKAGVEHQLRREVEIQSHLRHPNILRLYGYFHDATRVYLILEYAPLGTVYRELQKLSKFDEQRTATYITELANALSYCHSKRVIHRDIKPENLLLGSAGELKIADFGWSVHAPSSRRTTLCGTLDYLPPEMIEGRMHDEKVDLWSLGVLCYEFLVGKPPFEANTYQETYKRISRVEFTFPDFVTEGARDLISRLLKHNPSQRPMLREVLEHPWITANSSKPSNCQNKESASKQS
Description: radiometric 33PanQinase protein kinase assay. In kind it is biochemical. The conditions noted are these: radiometric assay, 1 µM ATP. Here is the method:
as §1, §2

Data set [4] addresses T3, Aurora-B (Homo sapiens, UniProt Q96GD4).
T3 construct: host or cells: Sf9 (baculovirus)
Description: radiometric 33PanQinase protein kinase assay. In kind it is biochemical. Particulars: radiometric assay, 1 µM ATP. Here is the method: as §1, §2

For data set [5], the target named is T4, VEGF-R2 (Homo sapiens, UniProt P35968).
T4 construct: host or cells: Sf9 (baculovirus)
Kind of data set: radiometric 33PanQinase protein kinase assay. In kind it is biochemical. Particulars: radiometric assay, 1 µM ATP. Here is the method:
as §1, §2

Data set [6] can be described thus: kinetic solubility by nephelometry. It counts as physicochemical. Particulars: phosphate buffer, 25 °C, pH 7.4, aqueous buffer, kinetic from dmso stock, phosphate buffer pH 7.4, 1% DMSO, mean of two measurements, range in brackets. Here is the method:
The kinetic solubility of test compounds was determined by nephelometry. Dilution series of test compounds in DMSO with eight to ten different concentrations were prepared. The dilutions were pipetted (2 µL) into the cavities of a 96 well plate (CorningTM UV-transparent flat-bottom microtiter plate; Corning Incorporated, Kennebunk, ME, USA). A phosphate buffer solution pH 7.4 (198 µL) was added, so that the DMSO concentration in the measured solutions was 1%. Three wells were filled with DMSO and phosphate buffer pH 7.4 (2:198) and measured as blank values. The 96 well plate prepared in this way was measured with the NEPHELOstar® Plus nephelometer (BMG Labtech GmbH, Ortenberg, Germany, software: Omega 5.11) at a temperature of 25 °C. Previously, the plate was shaken at 500 rpm for 10 s and the laser intensity was set to 80%. The beam focus was set to 2.50 mm. If the test substance is completely soluble, only a scattering close to the blank value is detected. As soon as a critical concentration is reached in which the kinetic solubility of the test compound is exceeded, solid particles precipitate. Undissolved particles in the sample scatter the laser beam. The intensity of the scattered light is determined, which is proportional to the number of particles in the solution. The blank values were determined and subtracted from the measured values of the test compounds. By measuring different concentrations of the test substances, different intensities of the scattered light, indicated as RNU (relative nephelometric units), were determined. Kick off curves were obtained by plotting concentrations against the RNU values. The point of intersection of the horizontal and of the ascending part of the kick-off curve indicated the kinetic solubility concentration.

pIC50, pKi: −log10 of the molar value. Converted amounts (≈) assume the structure as drawn.

T3 sequence (Q96GD4 whole entry): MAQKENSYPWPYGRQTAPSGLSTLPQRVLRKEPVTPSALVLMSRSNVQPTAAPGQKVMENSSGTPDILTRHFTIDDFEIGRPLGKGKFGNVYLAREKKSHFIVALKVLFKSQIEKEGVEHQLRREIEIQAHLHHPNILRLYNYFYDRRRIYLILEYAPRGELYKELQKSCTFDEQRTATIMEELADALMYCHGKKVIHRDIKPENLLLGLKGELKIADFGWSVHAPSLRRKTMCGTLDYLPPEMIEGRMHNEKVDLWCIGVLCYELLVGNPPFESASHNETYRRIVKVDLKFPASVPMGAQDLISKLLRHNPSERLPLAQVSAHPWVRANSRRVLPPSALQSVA
T1 sequence (P35916 25-1363): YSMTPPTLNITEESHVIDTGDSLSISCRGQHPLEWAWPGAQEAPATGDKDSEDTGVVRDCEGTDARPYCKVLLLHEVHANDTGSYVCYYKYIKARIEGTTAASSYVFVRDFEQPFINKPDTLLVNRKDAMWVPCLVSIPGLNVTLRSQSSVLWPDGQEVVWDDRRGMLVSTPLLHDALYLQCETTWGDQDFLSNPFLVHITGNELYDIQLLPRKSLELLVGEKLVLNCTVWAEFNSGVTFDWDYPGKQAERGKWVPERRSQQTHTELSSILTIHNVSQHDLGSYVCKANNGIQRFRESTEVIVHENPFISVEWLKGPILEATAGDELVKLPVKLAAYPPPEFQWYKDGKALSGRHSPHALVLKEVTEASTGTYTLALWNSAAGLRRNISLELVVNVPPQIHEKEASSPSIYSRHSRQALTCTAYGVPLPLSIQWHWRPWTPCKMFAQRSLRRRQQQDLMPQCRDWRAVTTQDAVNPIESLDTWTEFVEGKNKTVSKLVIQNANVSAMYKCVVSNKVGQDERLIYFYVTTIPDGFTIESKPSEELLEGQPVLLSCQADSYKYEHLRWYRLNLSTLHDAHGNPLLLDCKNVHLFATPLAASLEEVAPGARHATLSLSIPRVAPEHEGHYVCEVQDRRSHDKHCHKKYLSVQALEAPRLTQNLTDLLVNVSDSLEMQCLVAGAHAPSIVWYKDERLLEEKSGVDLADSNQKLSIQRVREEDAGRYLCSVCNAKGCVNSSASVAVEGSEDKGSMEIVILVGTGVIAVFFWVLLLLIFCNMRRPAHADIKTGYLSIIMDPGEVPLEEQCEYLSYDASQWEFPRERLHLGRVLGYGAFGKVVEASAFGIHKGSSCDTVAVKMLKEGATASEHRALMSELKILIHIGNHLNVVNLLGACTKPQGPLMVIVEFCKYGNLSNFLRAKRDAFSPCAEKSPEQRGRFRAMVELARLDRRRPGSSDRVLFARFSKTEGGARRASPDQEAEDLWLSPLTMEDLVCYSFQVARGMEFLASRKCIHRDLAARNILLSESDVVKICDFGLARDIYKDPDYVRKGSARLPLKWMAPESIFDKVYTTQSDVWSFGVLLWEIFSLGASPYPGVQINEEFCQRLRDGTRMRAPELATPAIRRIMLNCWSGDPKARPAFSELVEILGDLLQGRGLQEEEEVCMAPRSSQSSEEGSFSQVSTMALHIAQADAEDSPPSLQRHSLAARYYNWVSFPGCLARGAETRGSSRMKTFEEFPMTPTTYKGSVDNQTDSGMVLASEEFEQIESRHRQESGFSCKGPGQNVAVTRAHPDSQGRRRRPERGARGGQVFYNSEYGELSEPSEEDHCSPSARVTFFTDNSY
T4 sequence (P35968 20-1356): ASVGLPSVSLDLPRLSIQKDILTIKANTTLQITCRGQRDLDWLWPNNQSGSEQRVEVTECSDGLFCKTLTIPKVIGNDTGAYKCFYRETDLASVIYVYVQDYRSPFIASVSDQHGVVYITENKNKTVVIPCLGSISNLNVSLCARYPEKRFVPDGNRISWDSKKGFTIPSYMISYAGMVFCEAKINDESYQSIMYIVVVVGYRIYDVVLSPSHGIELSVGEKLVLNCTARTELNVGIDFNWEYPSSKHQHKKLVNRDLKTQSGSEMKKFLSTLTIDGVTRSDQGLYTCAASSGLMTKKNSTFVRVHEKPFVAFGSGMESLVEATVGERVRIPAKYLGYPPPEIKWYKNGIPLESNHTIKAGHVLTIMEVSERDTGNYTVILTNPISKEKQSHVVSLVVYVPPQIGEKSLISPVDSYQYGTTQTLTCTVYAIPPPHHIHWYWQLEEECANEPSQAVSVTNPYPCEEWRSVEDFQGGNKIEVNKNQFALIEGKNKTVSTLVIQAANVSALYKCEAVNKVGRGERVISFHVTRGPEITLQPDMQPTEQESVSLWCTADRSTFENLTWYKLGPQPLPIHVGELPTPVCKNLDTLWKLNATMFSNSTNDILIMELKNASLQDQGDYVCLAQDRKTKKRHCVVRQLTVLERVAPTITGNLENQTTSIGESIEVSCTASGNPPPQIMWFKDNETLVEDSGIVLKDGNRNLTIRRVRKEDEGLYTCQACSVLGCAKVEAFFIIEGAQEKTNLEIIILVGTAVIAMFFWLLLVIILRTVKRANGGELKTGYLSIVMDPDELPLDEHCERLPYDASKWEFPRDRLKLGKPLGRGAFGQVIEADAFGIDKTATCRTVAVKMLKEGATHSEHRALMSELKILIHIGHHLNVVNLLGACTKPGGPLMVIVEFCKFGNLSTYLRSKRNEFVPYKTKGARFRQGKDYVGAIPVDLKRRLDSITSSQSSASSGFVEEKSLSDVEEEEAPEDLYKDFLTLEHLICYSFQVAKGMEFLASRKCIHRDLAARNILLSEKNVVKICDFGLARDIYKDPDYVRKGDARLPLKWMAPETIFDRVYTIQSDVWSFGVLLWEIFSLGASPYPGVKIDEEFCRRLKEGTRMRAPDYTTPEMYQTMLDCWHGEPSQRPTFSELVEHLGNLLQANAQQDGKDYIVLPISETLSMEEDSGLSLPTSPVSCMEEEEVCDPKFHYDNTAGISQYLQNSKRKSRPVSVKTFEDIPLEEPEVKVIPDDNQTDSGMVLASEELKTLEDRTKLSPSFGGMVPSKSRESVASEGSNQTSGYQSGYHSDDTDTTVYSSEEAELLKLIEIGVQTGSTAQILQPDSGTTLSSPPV

A word on the pKi: it is the Ki on a negative log10 scale, so that one unit is a factor of ten. For `Cc1nc(N)sc1-c1ccnc(Nc2ccc(N3CCOCC3)cc2)n1` [CYC116], the pKi in data set [1] was […].
As a reminder, the pIC50 is −log10 of the IC50, conventionally taken in molar units. As a reminder, the kinetic solubility is solubility judged after dilution from a stock solution rather than from solid. Take `O=C1CCCc2cc(-c3ccnc(Nc4cccc(O)c4)n3)ccc2N1` [Compound 2m, 7-[2-(3-Hydroxyanilino)pyrimidin-4-yl]-1,3,4,5-tetrahydro-2H-1-benzazepin-2-one]: the pIC50 in data set [2] is 6.27; in data set [3], 5.77; in data set [4], 5.17; in data set [5] it was 6.11. In data set [6], this molecule gave a kinetic solubility at 10 s of 112 µM (≈ 38.8 µg/mL).
Molecule `O=C1CCCc2cc(-c3ccnc(Nc4cccc(OCCCNS(=O)(=O)N5CCCC5)c4)n3)ccc2N1` [Compound 14c, N-{3-[3-((4-(2-Oxo-2,3,4,5-tetrahydro-1H-benzo[b]azepin-7-yl)pyrimidin-2-yl)amino)phenoxy]propyl}-pyrrolidine-1-sulfonamide] showed a pIC50 in data set [3] of 5.35. In data set [6], the solubility (kinetic) at 10 s came to 25.3 µM (≈ 13.6 µg/mL).
The matching figures for `O=C1CCCc2cc(-c3ccnc(Nc4cccc(OCCCNS(=O)(=O)N5CCC5)c4)n3)ccc2N1` [Compound 14d, N-{3-[3-((4-(2-Oxo-2,3,4,5-tetrahydro-1H-benzo[b]azepin-7-yl)pyrimidin-2-yl)amino)phenoxy]propyl}-azetidine-1-sulfonamide]: 5.82 and 25.2 µM (≈ 13.2 µg/mL).
The matching figures for `COc1ccc(Nc2nccc(-c3ccc4c(c3)CCCC(=O)N4)n2)cc1OCCCN1CCN(C)S1(=O)=O` [Compound 14e, 7-(2-((4-Methoxy-3-(3-(5-methyl-1,1-dioxido-1,2,5-thiadiazolidin-2-yl)propoxy)phenyl)amino)pyrimidin-4-yl)-1,3,4,5-tetrahydro-2H-benzo[b]azepin-2-one]: 5.96 and 21.4 µM (≈ 11.8 µg/mL).
For `COc1ccc(Nc2nccc(-c3ccc4c(c3)CCCC(=O)N4)n2)cc1OCCCNS(=O)(=O)N1CCOCC1` [Compound 14f, N-{3-[2-Methoxy-5-((4-(2-oxo-2,3,4,5-tetrahydro-1H-benzo[b]azepin-7-yl)pyrimidin-2-yl)amino)phenoxy]-propyl}morpholine-4-sulfonamide], the pIC50 in data set [3] is 5.60. Besides, the kinetic solubility at 10 s in data set [6] was found to be 25 µM (≈ 14.6 µg/mL).
Turning to `COc1ccc(Nc2nccc(-c3ccc4c(c3)CCCC(=O)N4)n2)cc1OCCCNS(=O)(=O)N1CCC1` [Compound 14g, N-{3-[2-Methoxy-5-((4-(2-oxo-2,3,4,5-tetrahydro-1H-benzo[b]azepin-7-yl)pyrimidin-2-yl)amino)phenoxy]-propyl}azetidine-1-sulfonamide], the pIC50 in data set [3] was 6.09. In addition, the solubility (kinetic) at 10 s in data set [6] stood at 34.2 µM (≈ 18.9 µg/mL).
For `O=C(O)c1ccc(Nc2ncc3c(n2)-c2ccc(Cl)cc2C(c2c(F)cccc2F)=NC3)cc1` [MLN8054], the pIC50 in data set [1] was […].
Turning to `CC(=O)NCC(=O)N1C2CCC1c1cc(Nc3ncc(C(F)(F)F)c(NC4CCC4)n3)ccc12` (stereo not shown) [PF-03814735], in data set [1], the negative logarithm of the IC50 (pIC50) was […].
With `COc1cc(Nc2ncc3c(n2)-c2ccc(Cl)cc2C(c2c(F)cccc2OC)=NC3)ccc1C(=O)O` [alisertib], the pIC50 in data set [1] was 8.92.

Source of the values: PMC7998669, “7-(2-Anilinopyrimidin-4-yl)-1-benzazepin-2-ones Designed by a “Cut and Glue” Strategy Are Dual Aurora A/VEGF-R Kinase Inhibitors” (Molecules, 2021).
